In US20220184008A1, “MODULATORS OF INTRACELLULAR CHLORIDE CONCENTRATION” (FONDAZIONE ISTITUTO ITALIANO DI TECNOLOGIA, priority 2019, published 2022):

Columns and labels:
NKCC1 = assay: Calcium kinetic assay in primary cultures of immature hippocampal neurons; type: cell-based; conditions: for NKCC1 Inhibition % 10 μM Neurons Calcium kinetic assay: immature neurons 3 DIV
Protocol: FIG. 2: In vitro testing of the NKCC1 inhibitors in a calcium kinetic assay. a) Example traces of fluorescence levels upon application of GABA (100 μM) and KCl (90 mM) used to trigger calcium influx in primary neuronal cultures treated after 3 days in culture (3 DIV) with vehicle, bumetanide, furosemide and compounds 3.8, 3.13 and 3.17 in the calcium kinetic assay. b) Quantification of the average fluorescence increase upon GABA application normalized to the increase upon KCl application in neurons treated with bumetanide, furosemide and 3 exemplary compounds (3.8, 3.13, 3.17) (10 μM, 100 μM). Data represents mean±sem from 5 independent experiments, and they are presented as % of the control. *P<0.05, **P<0.01, ***P<0.001 Kruskal-Wallis Anova (Dunn's Post hoc Test).
Next, the compounds of the invention were tested for their ability to revert the depolarizing GABAergic signaling in immature neurons. This effect was indirectly measured as calcium influx into the cells with an in vitro calcium kinetic assay in primary cultures of hippocampal neurons. The calcium kinetic assay exploits the physiological, endogenous, high expression of NKCC1 in immature neurons, which causes depolarizing actions of GABA and can activate voltage-gated Ca^2+ channels. Thus, in immature neurons, a compound that blocks NKCC1 is predicted to inhibit Ca^2+ responses upon GABA application. Immature neurons were cultured for 3 days in vitro (3 DIV) and loaded for 15 min with a calcium-sensitive dye (Fluo4). Then, the neurons were treated with bumetanide and furosemide (as positive controls) or with each of the selected compounds for 15 min. As a functional readout, the fluorescence level was monitored in these cultures before and after application of GABA (100 μM, for 20 sec). To test for neuronal viability at the end of the experiment, KCl was applied (90 mM, for 40 sec), which strongly depolarizes neurons, causing high activation of voltage-gated Ca^2+ channels in live cells. To quantify how bumetanide, furosemide, and selected compounds influenced NKCC1 inhibition, the fluorescence values were normalized upon GABA application to the fluorescence levels upon KCl application in treated neurons.

NKCC2 = target: T1, NKCC2 (Homo sapiens, UniProt Q13621); assay: Thallium-based assay in NKCC2-transfected HEK293 cells; type: cell-based; conditions: for inhibition at 10 µM: NKCC2-transfected HEK293, Table 2
T1 construct: expressed in transfected cells; host or cells: HEK293
T1 sequence (Q13621 1-1099): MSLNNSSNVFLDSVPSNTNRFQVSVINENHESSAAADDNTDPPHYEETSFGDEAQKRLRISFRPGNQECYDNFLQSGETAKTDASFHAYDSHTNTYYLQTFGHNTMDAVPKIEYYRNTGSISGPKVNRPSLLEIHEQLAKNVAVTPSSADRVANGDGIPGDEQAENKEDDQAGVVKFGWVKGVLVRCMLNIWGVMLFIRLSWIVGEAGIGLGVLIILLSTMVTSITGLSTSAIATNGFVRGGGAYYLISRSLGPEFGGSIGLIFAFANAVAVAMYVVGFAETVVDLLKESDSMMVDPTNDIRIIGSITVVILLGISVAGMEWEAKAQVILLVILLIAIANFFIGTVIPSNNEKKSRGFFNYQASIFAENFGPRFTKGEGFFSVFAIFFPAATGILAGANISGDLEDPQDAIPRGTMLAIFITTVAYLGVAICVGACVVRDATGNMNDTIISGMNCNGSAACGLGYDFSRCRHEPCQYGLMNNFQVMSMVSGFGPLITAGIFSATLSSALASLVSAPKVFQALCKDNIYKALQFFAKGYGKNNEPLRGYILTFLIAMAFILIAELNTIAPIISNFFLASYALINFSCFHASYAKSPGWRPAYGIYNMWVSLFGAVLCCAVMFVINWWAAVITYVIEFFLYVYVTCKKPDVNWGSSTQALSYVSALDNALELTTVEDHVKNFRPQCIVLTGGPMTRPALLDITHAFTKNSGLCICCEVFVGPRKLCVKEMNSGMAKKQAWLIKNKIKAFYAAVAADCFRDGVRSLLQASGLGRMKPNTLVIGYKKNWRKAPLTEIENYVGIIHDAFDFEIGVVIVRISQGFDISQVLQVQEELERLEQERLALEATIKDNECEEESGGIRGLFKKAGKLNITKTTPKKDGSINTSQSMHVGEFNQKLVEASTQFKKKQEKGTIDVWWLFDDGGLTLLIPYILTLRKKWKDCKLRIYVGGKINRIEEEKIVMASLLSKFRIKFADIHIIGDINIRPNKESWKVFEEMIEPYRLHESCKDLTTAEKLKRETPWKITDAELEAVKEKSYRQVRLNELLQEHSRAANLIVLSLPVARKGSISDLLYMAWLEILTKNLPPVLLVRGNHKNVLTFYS
Description: The Thallium-based assay is a standard assay used to measure activity of potassium transporters, like NKCC2 which is a sodium potassium and chloride co-transporter. The assay consists on the monitoring of the cells upon the application of thallium (which mimic K^+) and consequently NaCl, which entering into cells by NKCC2, activated by the presence of the chloride ions, binds the fluorescent dye, thus determining a fluorescence increase. This assay involves parallel testing in 96 wells for a quick and easy drug screening. In detail, kidney epithelial cells (HEK293) were transfected with NKCC2 transporters, or a mock construct (control). After two days, the cells were loaded with a thallium-sensitive fluorescent dye in a Cl-free medium. After 1 hour of incubation, the inhibitory activity of bumetanide and furosemide (as positive controls) and the new compounds by monitoring fluorescence upon application of thallium (to mimic K) and subsequently NaCl were tested. When entering cells by NKCC2 (activated by the presence of Cl), thallium binds the fluorescent dye and increases fluorescence. […] A decreased fluorescence in the mock-transfected cells treated with bumetanide and furosemide was observed. […] This latter result was used to normalize the fluorescence measurements obtained with the assay. In particular, the ΔF/F0 value of the mock-transfected cells (both control and treated) was subtracted from the respective ΔF/F0 value of the cells transfected with the Cl transporters. With this assay, the novel chemical entities were tested for their ability to block NKCC2 (Results in Table 2).
The arrow indicates the addition of thallium (final concentration 2 mM) and NaCl stimulus (135 mM) used to initiate the flux assay. b) Quantification of the effect of bumetanide, furosemide and 3 example compounds (3.8, 3.13, 3.17) in the thallium-based assay on NKCC2-transfected HEK293 cells. Data represents mean±sem from 5 independent experiments, and they are represented as % of the controls. *P<0.05, **P<0.01, ***P<0.001 Kruskal-Wallis Anova (Dunn's Post hoc Test); ###P<0.001 two-tailed unpaired Student t-test.

CCCCNc1ccc(C(=O)O)cc1S(=O)(=O)N(C)C [Compound 3.11, 4-(butylamino)-3-(dimethylsulfamoyl)benzoic acid]
NKCC1 Inhibition % 10 μM Neurons Calcium kinetic assay (NKCC1; Table 1): 8% | NKCC1 Inhibition % 10 μM Neurons Calcium kinetic assay (NKCC1; Table 2): 8% | inhibition at 10 µM (NKCC2): 0%

CCCCCCCCNc1ccc(C(=O)O)cc1S(=O)(=O)N(C)C [Compound 3.13, 3-(dimethylsulfamoyl)-4-(octylamino)benzoic acid]
NKCC1 Inhibition % 10 μM Neurons Calcium kinetic assay (NKCC1; Table 1): 45% | NKCC1 Inhibition % 10 μM Neurons Calcium kinetic assay (NKCC1; Table 2): 45% | inhibition at 10 µM (NKCC2): 0%

CCCCCCCCNc1cc(Cl)c(C(=O)O)cc1S(N)(=O)=O [Compound 2.4, 2-chloro-4-(octylamino)-5-sulfamoyl-benzoic acid]
inhibition at 10 µM (NKCC2): 16%

CCCCCCNc1cc(Cl)c(C(=O)O)cc1S(N)(=O)=O [Compound 2.3, 2-chloro-4-(hexylamino)-5-sulfamoyl-benzoic acid]
inhibition at 10 µM (NKCC2): 14%

CCCCCCCCNc1ccc(C(=O)O)cc1S(N)(=O)=O [Compound 2.8, 4-(octylamino)-3-sulfamoyl-benzoic acid]
NKCC1 Inhibition % 10 μM Neurons Calcium kinetic assay (NKCC1; Table 1): 3% | NKCC1 Inhibition % 10 μM Neurons Calcium kinetic assay (NKCC1; Table 2): 3% | inhibition at 10 µM (NKCC2): 0%

CCCCCCCCNc1ccc([N+](=O)[O-])cc1S(=O)(=O)N(C)C [Compound 1.16, N,N-dimethyl-5-nitro-2-(octylamino)benzenesulfonamide]
inhibition at 10 µM (NKCC2): 0%

CNS(=O)(=O)c1cc([N+](=O)[O-])ccc1NCCC(C)(C)C [Compound 1.13, 2-(3,3-dimethylbutylamino)-N-methyl-5-nitro-benzenesulfonamide]
inhibition at 10 µM (NKCC2): 0%

CCCCNc1ccc([N+](=O)[O-])cc1S(=O)(=O)NC [Compound 1.10, 2-(butylamino)-N-methyl-5-nitro-benzenesulfonamide]
inhibition at 10 µM (NKCC2): 0%

CCCCCCNc1ccc(C(=O)O)cc1S(=O)(=O)N(C)C [Compound 3.12, 3-(dimethylsulfamoyl)-4-(hexylamino)benzoic acid]
NKCC1 Inhibition % 10 μM Neurons Calcium kinetic assay (NKCC1; Table 1): 13% | NKCC1 Inhibition % 10 μM Neurons Calcium kinetic assay (NKCC1; Table 2): 13% | inhibition at 10 µM (NKCC2): 29%

CCCCNc1ccc(C(=O)O)cc1S(N)(=O)=O [Compound 2.6, 4-(butylamino)-3-sulfamoyl-benzoic acid]
NKCC1 Inhibition % 10 μM Neurons Calcium kinetic assay (NKCC1; Table 1): 14% | NKCC1 Inhibition % 10 μM Neurons Calcium kinetic assay (NKCC1; Table 2): 14% | inhibition at 10 µM (NKCC2): 0%

CCCCCCCCNc1ccc(C(=O)O)cc1S(=O)(=O)NC [Compound 3.8, 3-(methylsulfamoyl)-4-(octylamino)benzoic acid]
NKCC1 Inhibition % 10 μM Neurons Calcium kinetic assay (NKCC1; Table 1): 20% | NKCC1 Inhibition % 10 μM Neurons Calcium kinetic assay (NKCC1; Table 2): 20% | inhibition at 10 µM (NKCC2): 0%

CCCCNc1cc(C(=O)O)cc(S(N)(=O)=O)c1Oc1ccccc1 [Bumetanide, reference compound]
NKCC1 Inhibition % 10 μM Neurons Calcium kinetic assay (NKCC1; Table 1): 52% | NKCC1 Inhibition % 10 μM Neurons Calcium kinetic assay (NKCC1; Table 2): 52% | fluorescence increase upon GABA application compared with vehicle (DMSO)-treated controls (NKCC1; GABA 100 μM, normalized to KCl): significantly reduced | inhibition at 10 µM (NKCC2): 99% | ion flux and consequent increase in fluorescence in NKCC2-transfected cells (NKCC2; pre-incubation 10 μM): significantly reduced

CCCCNc1ccc([N+](=O)[O-])cc1S(N)(=O)=O [Compound 1.6, 2-(butylamino)-5-nitro-benzenesulfonamide]
inhibition at 10 µM (NKCC2): 4%

CC(C)(C)CCNc1ccc(C(=O)O)cc1S(N)(=O)=O [Compound 2.9, 4-(3,3-dimethylbutylamino)-3-sulfamoyl-benzoic acid]
NKCC1 Inhibition % 10 μM Neurons Calcium kinetic assay (NKCC1; Table 1): 25% | NKCC1 Inhibition % 10 μM Neurons Calcium kinetic assay (NKCC1; Table 2): 25% | inhibition at 10 µM (NKCC2): 23%

CCCCCCNc1ccc([N+](=O)[O-])cc1S(N)(=O)=O [Compound 1.7, 2-(hexylamino)-5-nitro-benzenesulfonamide]
NKCC1 Inhibition % 10 μM Neurons Calcium kinetic assay (NKCC1; Table 1): 36% | NKCC1 Inhibition % 10 μM Neurons Calcium kinetic assay (NKCC1; Table 2): 36% | inhibition at 10 µM (NKCC2): 10%

CCCCCCNc1ccc(C(=O)O)cc1S(=O)(=O)NC [Compound 3.7, 4-(hexylamino)-3-(methylsulfamoyl)benzoic acid]
NKCC1 Inhibition % 10 μM Neurons Calcium kinetic assay (NKCC1; Table 1): 7% | NKCC1 Inhibition % 10 μM Neurons Calcium kinetic assay (NKCC1; Table 2): 7% | inhibition at 10 µM (NKCC2): 8%

CC(C)(C)CCNc1ccc([N+](=O)[O-])cc1S(N)(=O)=O [Compound 1.9, 2-(3,3-dimethylbutylamino)-5-nitro-benzenesulfonamide]
inhibition at 10 µM (NKCC2): 0%

CCCCCCNc1ccc([N+](=O)[O-])cc1S(=O)(=O)NC [Compound 1.11, 2-(hexylamino)-N-methyl-5-nitro-benzenesulfonamide]
inhibition at 10 µM (NKCC2): 0%

CCCCCCCCNc1ccc([N+](=O)[O-])cc1S(=O)(=O)NC [Compound 1.12, N-methyl-5-nitro-2-(octylamino)benzenesulfonamide]
inhibition at 10 µM (NKCC2): 0%

CCCCNc1ccc([N+](=O)[O-])cc1S(=O)(=O)N(C)C [Compound 1.14, 2-(butylamino)-N,N-dimethyl-5-nitro-benzenesulfonamide]
inhibition at 10 µM (NKCC2): 0%

CN(C)S(=O)(=O)c1cc([N+](=O)[O-])ccc1NCCC(C)(C)C [Compound 1.17, 2-(3,3-dimethylbutylamino)-N,N-dimethyl-5-nitro-benzenesulfonamide]
inhibition at 10 µM (NKCC2): 13%

CCCCCCNc1ccc([N+](=O)[O-])cc1S(=O)(=O)N(C)C [Compound 1.15, 2-(hexylamino)-N,N-dimethyl-5-nitro-benzenesulfonamide]
inhibition at 10 µM (NKCC2): 0%

CC(C)(C)CCNc1cc(Cl)c(C(=O)O)cc1S(N)(=O)=O [Compound 2.5, 2-chloro-4-(3,3-dimethylbutylamino)-5-sulfamoyl-benzoic acid]
inhibition at 10 µM (NKCC2): 0%

CCCCCCCCNc1ccc([N+](=O)[O-])cc1S(N)(=O)=O [Compound 1.8, 5-nitro-2-(octylamino)benzenesulfonamide]
inhibition at 10 µM (NKCC2): 10%
